Reference: patent publication US20230063321A1, “Methods for Treating Inflammatory Bowel Diseases with alpha4beta7 Integrin Antagonists” (Protagonist Therapeutics, Inc., priority 2020, published 2023)
Each block holds one molecule with its values, some of them ahead of it. Numbered stars: 1 amine (or outer) side, 2 acyl side, 3 side chain; on linkers, the order of the positions; unused ones are H or OH. Bridge positions count the residues as written; N and C are the ends. Square brackets hold non-standard residues; d marks the D form. Peptide text beside a SMILES is read from it. I, II: the chains in the order shown. ξ: configuration not given here. Phe(4-tBu) = CC(C)(C)c1ccc(C[C@H](N)C(=O)O)cc1; Diglycolyl = O=C(COCC(=O)[*:2])[*:1]; NMeR = CN[C@@H](CCCNC(=N)N)C(=O)O; β3hE = N[C@@H](CCC(=O)O)CC(=O)O; Thr(3ξ) = CC(O)[C@H](N)C(=O)O; Pen = CC(C)(S)[C@H](N)C(=O)O

How the values were obtained:
α4β7 [1] = molecular target: T1, α4β7 (Homo sapiens, UniProt P13612+P26010); experiment: α4β7 internalization / surface expression by flow cytometry; type: cell-based; conditions: human PBMCs, 100 nM, 24 h
T1 construct: endogenous in cells
Excerpt: Blood samples from human donors were obtained from the Stanford Blood Center (Stanford, Calif.) under an RB-approved research protocol. Blood was drawn into BD Vacutainer sodium heparin blood collection tubes (BD Biosciences, Cat #362753). Peripheral blood mononuclear cells (PBMCs) were isolated from blood using a SepMate-50 tube and LymphoPrep per the manufacturer's protocol. CD4^+ T memory cells were enriched after PBMC isolation, using an EasySep kit (StemCell Technologies) per the manufacturer's protocol.
After incubation, an aliquot of cells from each reaction was stained for α4β7 expression.
After incubation, cells were washed extensively to remove excess peptide. For each reaction, an aliquot of cells was stained for α4β7 expression, while a separate aliquot was tested for adhesion to MAdCAM1.
An aliquot of cells were collected before and 24 h post peptide addition and stained for α4β7 expression. Afterwards, cells were extensively washed to remove excess peptide and incubated in fresh complete culture medium (without MnCl2) for an additional seven days. On day 1, 2, 4, 5, and 7 days after peptide washout, aliquots were stained for α4β7 expression.
Following peptide incubation, an aliquot of each reaction was stained for surface expression of α4β7 in preparation for flow cytometry. Cells were stained at 4° C. for 30 minutes, washed twice in DPBS containing 0.5% BSA (PBS/BSA), incubated with streptavidin BV421 (diluted 1:1000) at 4° C. for 30 minutes, washed twice in PBS/BSA, and then resuspended in PBS/BSA for analysis. Where relevant, a “fluorescence minus one” (FMO) sample was used as the staining control.
Samples were analyzed by flow cytometry on a BD (Franklin Lakes, N.J.) FACSVerse flow cytometer equipped with the following lasers: 405 nm (violet), 488 nm (blue), 561 nm (yellow-green), and 640 nm (red). CD4^+ T memory cells were identified as CD4^+, […], CD197^+ lymphocytes. α4β7 expression within CD4^+ T memory cells was identified based on staining with the Vedolizumab BV421 complex; staining was analyzed using BD FACSuite software, version 1.0.5. Where applicable, values were normalized to no-peptide controls and expressed as percentages to permit assessment of changes in the indicated parameter. Data were plotted and analyzed using Prism software (version 7; GraphPad, La Jolla, Calif.).

α4β7 [2] = molecular target: T2, α4β7 (Mus musculus, UniProt P26011+Q00651); experiment: α4β7 receptor occupancy in whole blood and Peyer's patches after oral dosing; type: in vivo, C57BL/6 mice
T2 construct: mice were euthanized and whole blood/plasma and Peyer's patches were collected; from tissue; host or cells: whole blood and Peyer's patches of C57BL/6 mice
Protocol: One hour following dosing, mice were euthanized and whole blood/plasma and Peyer's patches were collected. Peyer's patches were dispersed in 1 mL RPMI medium with 2% FBS without washing step. Whole blood and single cell suspension of Peyer's patches (100 uL out of 1 mL total) were submitted for flow cytometry to determine α4β7 receptor occupancy. % RO=(1−(% positive test sample/% positive median vehicle control))*100. Plasma and Peyer's patches dispersed in single cell suspension (500 uL of 1 mL total) were also analyzed for drug exposure.

α4β7 integrin = molecular target: T3, α4β7 integrin (Homo sapiens, UniProt P13612+P26010); experiment: Inhibition of MAdCAM1-mediated CD4+ T cell proliferation (plate bound anti-CD3 + MAdCAM1); type: cell-based; conditions: Compound A 1 uM, inactive analog 1 uM, vedolizumab 500 ng/mL; three days
T3 construct: endogenous in cells; host or cells: primary human CD4+ T cells enriched from PBMCs of healthy donors
Protocol: PBMCs were purified from healthy human donors and enrichment of CD4+ T cells was performed. […] Phenotype, distribution of T-helper (Th) subsets and % RO analyses were conducted by flow cytometry of freshly stained live samples.

[3] = molecular target: α4β7 integrin (mouse, on cells of whole blood and Peyer's patches) (mouse) (UniProt Q00651); experiment: flow cytometry α4β7 receptor occupancy in Peyer's patches, mice dosed orally 3 or 30 mg/kg
Sequence of α4β7 integrin (mouse, on cells of whole blood and Peyer's patches) (mouse) (Q00651 41-1039, chain 1 of 2): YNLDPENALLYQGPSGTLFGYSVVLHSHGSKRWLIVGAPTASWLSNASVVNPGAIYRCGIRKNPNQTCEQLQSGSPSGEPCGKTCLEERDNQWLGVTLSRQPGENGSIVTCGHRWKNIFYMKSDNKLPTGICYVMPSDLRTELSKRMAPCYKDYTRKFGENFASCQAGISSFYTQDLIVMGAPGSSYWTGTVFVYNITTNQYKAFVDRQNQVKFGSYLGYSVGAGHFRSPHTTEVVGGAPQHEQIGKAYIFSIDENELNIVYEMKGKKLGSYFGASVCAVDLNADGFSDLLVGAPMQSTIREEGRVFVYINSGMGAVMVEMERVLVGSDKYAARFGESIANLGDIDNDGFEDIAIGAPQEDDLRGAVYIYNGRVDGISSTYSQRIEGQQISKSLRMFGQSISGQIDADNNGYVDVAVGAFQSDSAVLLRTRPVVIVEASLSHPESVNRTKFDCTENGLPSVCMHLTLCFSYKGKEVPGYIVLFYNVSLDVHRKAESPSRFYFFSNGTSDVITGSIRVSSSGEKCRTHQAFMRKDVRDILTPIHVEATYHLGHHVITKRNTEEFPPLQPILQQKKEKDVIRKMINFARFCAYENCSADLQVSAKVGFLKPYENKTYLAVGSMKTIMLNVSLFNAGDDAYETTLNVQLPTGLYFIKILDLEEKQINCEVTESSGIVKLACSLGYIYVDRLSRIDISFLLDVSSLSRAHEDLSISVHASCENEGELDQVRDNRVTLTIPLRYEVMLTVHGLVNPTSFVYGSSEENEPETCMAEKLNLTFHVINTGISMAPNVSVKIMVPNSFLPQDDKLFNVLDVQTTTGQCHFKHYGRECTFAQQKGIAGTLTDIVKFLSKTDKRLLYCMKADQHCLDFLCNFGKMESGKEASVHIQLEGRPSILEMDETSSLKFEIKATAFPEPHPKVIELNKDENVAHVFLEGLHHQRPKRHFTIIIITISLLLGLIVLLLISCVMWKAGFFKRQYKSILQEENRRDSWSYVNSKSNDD
Sequence of α4β7 integrin (mouse, on cells of whole blood and Peyer's patches) (mouse) (P26011 20-806, chain 2 of 2, further chain): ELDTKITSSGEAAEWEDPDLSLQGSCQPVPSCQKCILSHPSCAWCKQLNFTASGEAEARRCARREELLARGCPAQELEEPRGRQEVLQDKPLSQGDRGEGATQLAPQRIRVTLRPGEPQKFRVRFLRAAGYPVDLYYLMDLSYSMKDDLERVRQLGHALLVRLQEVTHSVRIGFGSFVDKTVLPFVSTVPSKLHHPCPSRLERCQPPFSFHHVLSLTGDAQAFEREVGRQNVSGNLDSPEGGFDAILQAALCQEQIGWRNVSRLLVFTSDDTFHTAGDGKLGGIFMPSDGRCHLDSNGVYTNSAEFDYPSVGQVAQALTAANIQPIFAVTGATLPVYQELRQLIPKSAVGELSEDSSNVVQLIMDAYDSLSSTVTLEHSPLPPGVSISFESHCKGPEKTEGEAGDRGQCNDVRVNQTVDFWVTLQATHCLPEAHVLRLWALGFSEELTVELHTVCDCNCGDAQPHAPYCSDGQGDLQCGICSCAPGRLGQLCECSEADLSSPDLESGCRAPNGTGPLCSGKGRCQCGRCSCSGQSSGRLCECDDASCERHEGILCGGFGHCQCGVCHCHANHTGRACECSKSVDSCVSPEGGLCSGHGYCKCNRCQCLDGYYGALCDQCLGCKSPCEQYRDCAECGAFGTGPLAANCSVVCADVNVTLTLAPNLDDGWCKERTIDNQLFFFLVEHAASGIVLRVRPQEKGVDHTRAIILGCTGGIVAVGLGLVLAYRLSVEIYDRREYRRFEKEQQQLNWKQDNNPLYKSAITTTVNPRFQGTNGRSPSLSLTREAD

T2 sequence (Q00651 41-1039): as the sequence (Q00651 41-1039, chain 1 of 2) above
T2 sequence (P26011 20-806): as the sequence (P26011 20-806, chain 2 of 2, further chain) above

internalization of α4β7 (α4β7 [1]): caused internalization of α4β7 | receptor occupancy in Peyer's patches (α4β7 [2]; 3 and 30 mg/kg PO, 1 h post dose, some animals): 100% | receptor occupancy in whole blood and Peyer's patches, 30 mg/kg vs 3 mg/kg dose group (α4β7 [2]; PO): comparable | receptor occupancy in Peyer's patches compared to whole blood (α4β7 [2]; both dose groups (3 and 30 mg/kg PO)): significantly higher
Molecule: CC(=O)N[C@@H]1C(=O)N(C)[C@@H](CCCNC(=N)N)C(=O)N[C@@H](CO)C(=O)N[C@@H](CC(=O)O)C(=O)N[C@@H](C(C)O)C(=O)N[C@@H](CC(C)C)C(=O)N[C@H](C(=O)N[C@@H](Cc2ccc(C(C)(C)C)cc2)C(=O)N[C@@H](CCC(=O)O)CC(=O)N[C@H](CCCCNC(=O)COCC(=O)NCCCC[C@@H](NC(=O)C[C@H](CCC(=O)O)NC(=O)[C@H](Cc2ccc(C(C)(C)C)cc2)NC(=O)[C@H]2NC(=O)[C@H](CC(C)C)NC(=O)[C@H](C(C)O)NC(=O)[C@H](CC(=O)O)NC(=O)[C@H](CO)NC(=O)[C@H](CCCNC(=N)N)N(C)C(=O)[C@@H](NC(C)=O)C(C)(C)SSC2(C)C)C(N)=O)C(N)=O)C(C)(C)SSC1(C)C (stereo partly drawn) [Compound B, (Ac-Pen-(N-Me-Arg)-Ser-Asp-Thr-Leu-Pen-(Phe(4-tBu))-(β-homo-Glu)-(D-Lys)-NH2)2 (SEQ ID NO. 6) with linker=DIG (diglycolic acid)] (I: Ac-[Pen][NMeR]SD[Thr(3ξ)]L[Pen][Phe(4-tBu)][β3hE][dK]-NH2 / II: Ac-[Pen][NMeR]SD[Thr(3ξ)]L[Pen][Phe(4-tBu)][β3hE][dK]-NH2; disulfide I:1-I:7, II:1-II:7; linker I:10-II:10 via Diglycolyl)

Molecule: vedolizumab: intravenously administered humanized IgG monoclonal antibody directed against α4β7 [reference compound]
inhibition of MAdCAM1-mediated proliferation of CD4+ T-cells (α4β7 integrin): level of inhibition was similar to inhibition by vedolizumab

receptor occupancy (%) [3]: 100%
B1: Compound B (peptide)
peptide: Ac-[Pen][NMeR]SDTL[Pen][Phe(4-tBu)][β3hE][dK]-NH2
modifications: disulfide 1-7; also: homodimer linked through D-Lys residues by diglycolic acid (DIG)
